Series [1] has as its system Ex vivo T. gondii cysts (PRU strain). Description: Cyst and bradyzoite penetration observed by fluorescence microscopy. Format: cell-based, Toxoplasma gondii. Conditions: 37 °C, exposure time 100 ms. From the text: To focus on the ability of the cyclic tetrapeptide moiety to transport compounds through the cyst wall, we began our investigation by monitoring the transport of the poorly cell-permeable fluorochrome 3 (Figure 2) by optical microscopy.
To ensure that the fluorescent compound was incorporated to the parasite cell, bradyzoites were released from treated cysts (Figure 3b).
Cysts were isolated from the brains of mice chronically infected with the Pru-Δhxgprt-A7 or the Pru strains for at least 6 weeks, either using the Percoll gradient method as described previously or directly harvesting the cysts using a 10-μL pipet for the dye experimentation in order to prevent deterioration of the cyst wall for the permeability studies.
Images were acquired with a Axioplan 2 fluorescence microscope (Carl Zeiss Microimaging, Thornwood, NY, USA) and processed with the ZEN software (Zeiss).

In series [2] the test system is T. gondii RH strain tachyzoite. The format is cell-based, Toxoplasma gondii. Conditions: intracellular growth of RH strain tachyzoite in HFF. From the text:
The parasite strains used in this study are the following: the T. gondii type I RH strain that has lost the ability to complete cyst conversion, the T. gondii type II Prugniaud (Pru) strain that is capable of robust bradyzoite differentiation, the T. gondii type II Pru-Δhxgprt-A7 strain that expresses green fluorescent protein (GFP), the Pru-Δku80 strain [36, 37], and the RH Tg hdac3 T99A strain (previously obtained in our laboratory).
(§1) All T. gondii strains were maintained by serial passage in an HFF (Human Foreskin Fibroblasts) monolayer under tachyzoite growth conditions in Dulbecco’s modified Eagle medium (DMEM; Invitrogen) supplemented with 10% (vol/vol) fetal bovine serum (FBS; Invitrogen), 4 mM glutamine, 500 U/mL penicillin, 250 µg/mL streptomycin at 37 °C and 25 mM Hepes buffer (Invitrogen) in 5% CO2.

Another series concerns human cells HFF. The format is cell-based. Conditions: human foreskin fibroblasts. The method, then:
as §1

Data on 2 compounds can be found in publication PMC8708940, “Crossing of the Cystic Barriers of Toxoplasma gondii by the Fluorescent Coumarin Tetra-Cyclopeptide” (Molecules, 2021).

The structures appear in SMILES notation.

Usually EC50 stands for the midpoint of the concentration-response curve. Read a high EC50 as a need for much substance.

Regarding `C=CCC[C@@H]1NC(=O)[C@H]2CCCN2C(=O)[C@H](Cc2ccccc2)NC(=O)[C@](C)(Cc2cn(-c3cc4ccc(N(CC)CC)cc4oc3=O)nn2)NC1=O` [compound 2], the “Fluorescent labeling of isolated cysts (cyst penetration)” value in series [1] (isolated ex vivo cysts, 1 µM, 24 h, PBS washing) is “labeled them with a high intensity”.

Turning to `CCN(CC)c1ccc2cc(-n3cc(C[C@]4(C)NC(=O)[C@H](CCCCCC(=O)[C@@H](C)O)NC(=O)[C@H]5CCCN5C(=O)[C@H](Cc5ccccc5)NC4=O)nn3)c(=O)oc2c1` [compound 1], the EC50 was found to be 43 ± 2.2 nM in series [2] and 280 ± 20 nM in the series on human cells HFF. Besides, in series [1] (200 nM to 3.7 µM, 3, 22 and 96 h), the “Fluorescence of isolated cysts (penetration and accumulation in the cyst)” value was “increasing fluorescence was observed”. In addition, the “Labeling of bradyzoites released from treated cysts” value in series [1] (3.7 µM for 3 h, bradyzoites released from the cyst) is “clearly show labeling of these bradyzoites”.
